Reference: the OPERA property sets (Mansouri et al. 2018)

| SMILES | logP |
| --- | --- |
| CC(C)CNC(=O)Nc1ccc(Cl)c(Cl)c1 | 4.48 |
| CCNc1nc(Cl)nc(NC2CCCCC2)n1 | 3.63 |
| C=CC(C)C(=O)Nc1ccc(Cl)cc1Cl (centres undefined) | 3.49 |
| CNC(=O)Nc1cccc(OC)c1 | 1.26 |
| CCNc1nc(Cl)nc(NCC2CC2)n1 | 2.85 |
| CC1(NC(=O)Nc2ccccc2)CCCCC1 | 3.6 |

Results, then the molecule that gave them:

| logP | SMILES |
| --- | --- |
| 2.77 | CCNc1nc(Cl)nc(NC2CCC2)n1 |
| 3.83 | CCCC(C)(C)C(=O)Nc1ccc(Cl)cc1 |
| 2.55 | CCCc1ccc(NC(=O)N(C)C)cc1 |
| 2.83 | CN(C)C(=O)Nc1cccc(Cc2ccccc2)c1 |
| 2.75 | C=CCNc1nc(Cl)nc(NCC=C)n1 |
| 4.74 | CCCCCC(C)Nc1nc(Cl)nc(NCC)n1 (centres undefined) |
| 4.31 | CCCC(C)C(=O)Nc1ccc(C)c(Cl)c1 (centres undefined) |
| 3.61 | O=C(Cc1ccccc1)Nc1cccc(Cl)c1 |
